Test results: ChEMBL document CHEMBL5143547, “Antimycobacterial and anti-inflammatory activities of thiourea derivatives focusing on treatment approaches for severe pulmonary tuberculosis” (Bioorg Med Chem, 2022)
Calls of active or inactive are those of the source. No cut-off for these calls is given here.

Legend:
RAW264.7 [1] = experiment: Inhibition of NO production in mouse RAW264.7 cells incubated for 24 hrs by Griess reagent based analysis; type: functional, cell-based; settings: RAW264.7, 24 h
[2] = test system: Mycobacterium tuberculosis; experiment: Antitubercular activity against Mycobacterium tuberculosis H37Rv assessed as reduction in microbial growth after 5 days by MTT assay; type: functional; settings: 120 h, time 5 day
[3] = Cytotoxicity against LPS-stimulated mouse RAW264.7 cells after 24 hrs by MTT assay; type: toxicity, cell-based; settings: LPS-stimulated RAW264.7 cells
[4] = Selectivity index, ratio of CC50 for cytotoxicity against LPS-stimulated mouse RAW264.7 cells to MIC50 for antitubercular activity against Mycobacterium tuberculosis H37Rv; type: toxicity, cell-based; settings: LPS-stimulated RAW264.7 cells, read-out: Selectivity Index
RAW264.7 [5] = experiment: Anti-inflammatory activity against LPS-stimulated mouse RAW264.7 cells assessed as reduction in TNFalpha protein expression level at 12.5 uM after 24 hrs by ELISA; type: functional, cell-based
[6] = Selectivity index, ratio of CC50 for cytotoxicity against LPS-stimulated mouse RAW264.7 cells to MIC50 for antitubercular activity against Mycobacterium tuberculosis M299; type: toxicity, cell-based; settings: LPS-stimulated RAW264.7 cells, read-out: Selectivity Index
RAW264.7 [7] = experiment: Anti-inflammatory activity against LPS-stimulated mouse RAW264.7 cells assessed as reduction in IL1beta protein expression level after 24 hrs by ELISA; type: functional, cell-based; settings: RAW264.7, 24 h
RAW264.7 [8] = experiment: Anti-inflammatory activity against LPS-stimulated mouse RAW264.7 cells assessed as reduction in iNOS protein expression level at 100 uM after 24 hrs by immunoblot analysis relative to control; type: functional
[9] = test system: Mycobacterium tuberculosis; experiment: Antitubercular activity against Mycobacterium tuberculosis M299 infected in mouse RAW264.7 cells assessed as reduction in intracellular microbial growth after 4 days followed by cell lysis and measured after 21 days; type: functional; settings: M299, 96 h, time 4 day
[10] = test system: Mycobacterium tuberculosis; experiment: Antitubercular activity against Mycobacterium tuberculosis M299 assessed as reduction in microbial growth after 5 days by MTT assay; type: functional, organism-based; settings: M299, 120 h
RAW264.7 [11] = experiment: Anti-inflammatory activity against LPS-stimulated mouse RAW264.7 cells assessed as reduction in TNFalpha protein expression level after 24 hrs by ELISA; type: functional, cell-based; settings: RAW264.7, 24 h
[12] = test system: Mycobacterium tuberculosis; experiment: Antitubercular activity against Mycobacterium tuberculosis H37Rv infected in mouse RAW264.7 cells assessed as reduction in microbial growth after 4 days followed by cell lysis and measured after 21 days; type: functional; settings: 96 h, time 4 day

Row | Compound | IC50 (RAW264.7 [1]) [µM] | MIC50 [2] [µM] | CC50 at 24 h [3] [µM] | selectivity ratio [4] | inhibition (RAW264.7 [5]) | selectivity ratio [6] | IC50 (RAW264.7 [7]) [µM] | inhibition at 100 µM (RAW264.7 [8]) [%] | MIC50 [9] [µM] | IC50 [10] [µM] | IC50 (RAW264.7 [11]) [µM] | MIC50 [12] [µM]
1 | COc1ccc(NC(S)=Nc2ccccc2)cc1 | ≥ 200 | 16.2 | 43.3 | 2.7 | – | – | – | – | – | – | – | –
2 | COc1cc(NC(=S)N2CCN(c3ccc(O)cc3)CC2)cc(OC)c1OC | ≥ 200 | 80.9 | 17.3 | 0.2 | – | – | – | – | – | – | – | –
3 | S=C(NCCc1ccccc1)N1CCOCC1 | ≥ 200 | ≥ 200 | ≥ 200 | > 1 | – | – | – | – | – | – | – | –
4 | OCCN(CCO)C(=S)Nc1ccccc1 | 50.7 | ≥ 200 | ≥ 200 | > 1 | – | – | – | – | – | – | – | –
5 | CCCCN1CCN(C(=S)Nc2ccccc2)CC1 | ≥ 200 | 31.5 | ≥ 200 | > 6.4 | – | – | – | – | – | – | – | –
6 | CNC(=N)NCCC[C@H](N)C(=O)O [TILARGININE ACETATE] | 78.3 | – | – | – | – | – | – | – | – | – | – | –
7 | O=C(NNC(=S)NCc1ccccc1)c1ccncc1 | 7.4 | 1.3 | 93.2 | 71.7 | Active | 13.5 | ≥ 200 | ≤ 100 | 32 | 6.9 | 18.7 | 3.7
8 | S=C(Nc1ccccc1)N1CCN(Cc2ccc3c(c2)OCO3)CC1 | 116 | 23.9 | ≥ 200 | > 8.4 | – | – | – | – | – | – | – | –
9 | O=C(NNC(=S)NCc1ccccc1)c1ccccc1 | ≥ 200 | 33.7 | 42.1 | 1.3 | – | – | – | – | – | – | – | –
10 | N#CNC(=S)NCCc1ccccc1 | 10.1 | 33.3 | 65.9 | 1.9 | – | – | – | – | – | – | – | –
11 | S=C(NCc1ccccc1)N(c1ccccc1)c1ccccc1 | ≥ 200 | ≥ 200 | 67.6 | 0.3 | – | – | – | – | – | – | – | –
12 | Oc1ccc(N2CCN(C(=S)Nc3ccccc3)CC2)cc1 | 155 | 155 | 186 | 1.2 | – | – | – | – | – | – | – | –
13 | S=C(NCc1ccccc1)N1CCN(Cc2ccc3c(c2)OCO3)CC1 | 110 | 8.5 | 136 | 15.9 | – | – | – | – | – | – | – | –
14 | S=C(Nc1ccccc1)N1CCN(c2ncccn2)CC1 | ≥ 200 | 127 | ≥ 200 | > 1.6 | – | – | – | – | – | – | – | –
15 | COc1cc(NC(=S)Nc2cc(OC)c(OC)c(OC)c2)cc(OC)c1OC | 31.8 | 64.2 | 60.6 | 0.9 | – | – | – | – | – | – | – | –
16 | CC(C)Cc1ccc(C(C)C(=O)O)cc1 (centres undefined) [IBUPROFEN] | – | – | – | – | Active | – | 14.4 | – | – | – | 2.1 | –
17 | OCCNC(=S)Nc1ccccc1 | ≥ 200 | 53.3 | 105 | 1.9 | – | – | – | – | – | – | – | –
18 | CCN(CC)C(S)=NCCc1ccccc1 | ≥ 200 | 17.6 | 87.3 | 4.9 | – | – | – | – | – | – | – | –
19 | CC(C)NC(=S)NCCc1ccccc1 | 20.6 | 108 | ≥ 200 | > 1.9 | – | – | – | – | – | – | – | –
20 | S=C(Nc1ccccc1)Nc1ccc(Br)cc1 | 1.9 | 28.9 | 27.1 | 0.9 | – | – | – | – | – | – | – | –
21 | CCCCN1CCN(C(=S)NCc2ccccc2)CC1 | ≥ 200 | 157 | ≥ 200 | > 1.3 | – | – | – | – | – | – | – | –
22 | S=C(NCCc1ccccc1)N1CCN(c2ccccn2)CC1 | ≥ 200 | 12.6 | 40.6 | 3.2 | – | – | – | – | – | – | – | –
23 | S=C(NCc1ccccc1)Nc1ccc2c(c1)OCCO2 | 13.7 | 2 | ≥ 200 | > 100 | Active | ≥ 17.7 | 33.2 | ≤ 100 | 19.4 | 11.3 | 20.7 | 4.8
